In brackets after ≈: the same amount, converted by molar mass. Some results are limits rather than exact numbers.

Among the test systems are Escherichia coli BL21; Serratia marcescens; Escherichia coli; Escherichia coli C600; Aspergillus fumigatus; Pasteurella multocida; Bibersteinia trehalosi; Staphylococcus aureus; Klebsiella pneumoniae.
What all share (experiment): ≥ marks a high value that may be exact or a test limit, other limits are often not marked, values filed in µg/mL are converted to µM
Test [1] concerns Pseudomonas aeruginosa PAO1.
The subject of test [2] is Streptococcus pyogenes M1T1 5448.
The subject of test [3] is Escherichia coli ATCC 25922.
The subject of test [4] is Klebsiella pneumoniae ATCC 13833.
Test [5] relates to Staphylococcus aureus ATCC 25923.
For test [6], the system named is Candida albicans ATCC 90028.
For test [7], the system named is Pseudomonas aeruginosa ATCC 27853.
The subject of test [8] is Cryptococcus neoformans B3501.
Test [9] relates to Pseudomonas aeruginosa ATCC 9027.
Test [10] has as its system Bacillus subtilis KCTC 1021.
The subject of test [11] is Klebsiella pneumoniae ATCC 10031.
The subject of test [12] is Salmonella enterica subsp. enterica serovar Typhimurium ATCC 14028.
Test [13] deals with Shigella dysenteriae ATCC 9752.
Test [14] relates to Micrococcus luteus ATCC 4698.
Test [15] concerns Staphylococcus aureus 209P.
For test [16], the system named is Mannheimia haemolytica Serovar 2.
Test [17] has as its system Corynebacterium pseudotuberculosis ATCC 19410.
Test [18] has as its system Mannheimia haemolytica Serovar 1.
Test [19] concerns Mannheimia haemolytica Serovar 6.
Test [20] has as its system Salmonella enterica subsp. arizonae.
Test [21] relates to Staphylococcus aureus USA 300.

`CC[C@H](C)[C@H](NC(=O)[C@H](CCCN=C(N)N)NC(=O)CNC(=O)[C@@H](NC(=O)[C@H](CCCCN)NC(=O)[C@H](CCCN=C(N)N)NC(=O)[C@@H](NC(=O)[C@H](Cc1ccc(O)cc1)NC(=O)[C@H](CCCN=C(N)N)NC(=O)[C@H](CCCN=C(N)N)NC(=O)[C@H](CC(C)C)NC(=O)[C@H](CCC(=O)O)NC(=O)[C@H](CCCCN)NC(=O)[C@H](C)NC(=O)[C@@H](NC(=O)[C@H](CCCN=C(N)N)NC(=O)[C@H](CC(N)=O)NC(=O)[C@@H](NC(=O)CNC(=O)[C@H](C)N)[C@@H](C)O)[C@@H](C)CC)[C@@H](C)CC)C(C)C)C(=O)N[C@@H](C)C(=O)N[C@@H](CCCN=C(N)N)C(=O)N[C@@H](CCCCN)C(=O)N[C@@H](Cc1c[nH]c2ccccc12)C(=O)N[C@@H](Cc1c[nH]c2ccccc12)C(=O)O` [AGTNRIAKELRRYIRKVGRIARKWW]: the MIC – broadly, the least concentration at which growth counts as inhibited – in [1] amounted to 8 µM (≈ 24.8 µg/mL); in the test with Escherichia coli BL21, 0.25 µM (≈ 0.775 µg/mL); in [2], 1 µM (≈ 3.1 µg/mL).
As to `CC[C@H](C)[C@H](NC(=O)[C@H](Cc1cnc[nH]1)NC(=O)[C@H](C)NC(=O)[C@H](Cc1ccc(O)cc1)NC(=O)[C@@H](NC(=O)[C@H](CCCN=C(N)N)NC(=O)[C@H](Cc1ccccc1)NC(=O)[C@H](CC(C)C)NC(=O)[C@H](CCCN=C(N)N)NC(=O)[C@H](CCCCN)NC(=O)[C@H](CC(C)C)NC(=O)[C@@H](NC(=O)[C@@H](NC(=O)[C@H](CCCCN)NC(=O)[C@H](C)NC(=O)[C@@H](NC(=O)[C@H](CO)NC(=O)[C@H](CCSC)NC(=O)[C@@H](N)Cc1ccccc1)C(C)C)[C@@H](C)O)[C@@H](C)CC)C(C)C)C(=O)N[C@@H](Cc1ccc(O)cc1)C(N)=O` [FMSVAKTILKRLFRVYAHIY], the MIC in test [3] was 4 µM (≈ 9.82 µg/mL); in test [4], 4 µM (≈ 9.82 µg/mL); in [5] it was 4 µM (≈ 9.82 µg/mL); in test [6], 8 µM (≈ 19.6 µg/mL); in test [7], 8 µM (≈ 19.6 µg/mL); in test [8] it was 2 µM (≈ 4.91 µg/mL).
In the case of `CC[C@H](C)[C@H](NC(=O)CN)C(=O)N[C@@H](CC(C)C)C(=O)N[C@@H](CC(=O)O)C(=O)N[C@H](C(=O)N[C@@H](CC(C)C)C(=O)N[C@@H](CCCCN)C(=O)N[C@@H](CCC(N)=O)C(=O)N[C@@H](Cc1ccccc1)C(=O)N[C@@H](C)C(=O)N[C@@H](CCCCN)C(=O)NCC(=O)N[C@H](C(=O)NCC(=O)N[C@@H](CCCCN)C(=O)N[C@@H](CC(=O)O)C(=O)N[C@@H](CC(C)C)C(=O)N[C@H](C(=O)N[C@@H](CCCCN)C(=O)NCC(=O)N[C@@H](C)C(=O)N[C@@H](C)C(=O)N[C@@H](CCC(N)=O)C(=O)O)C(C)C)C(C)C)[C@@H](C)O` [GILDTLKQFAKGVGKDLVKGAAQ], the MIC in test [9] is more than 84.8 µM; against Serratia marcescens, not below 84.8 µM; in test [10], not below 84.8 µM; in [11], not below 84.8 µM; in test [12] it was more than 84.8 µM; against Escherichia coli, more than 84.8 µM. In addition, the MIC in test [13] and in [14] was not below 84.8 µM throughout.
`CC[C@H](C)[C@@H]1NC(=O)CNC(=O)[C@H](CCCN=C(N)N)NC(=O)[C@H](CCCN=C(N)N)NC(=O)[C@@H]2CSSC[C@H](NC1=O)C(=O)N[C@@H](Cc1ccc(O)cc1)C(=O)N[C@@H](CCCN=C(N)N)C(=O)N[C@@H](CCCN=C(N)N)C(=O)N[C@H](C(=O)N[C@@H](CCCN=C(N)N)C(=O)O)CSSC[C@H](NC(=O)[C@H](Cc1c[nH]c3ccccc13)NC(=O)[C@@H](N)CCCCN)C(=O)N[C@@H](Cc1ccccc1)C(=O)N[C@@H](CCCN=C(N)N)C(=O)N[C@@H](C(C)C)C(=O)N2` [KWCFRVCRRGICYRRCR]: the values for the MIC (in test [15]; in test [1]; in the test on Escherichia coli C600) were 3.13 µM (≈ 7.07 µg/mL), 6.25 µM (≈ 14.1 µg/mL) and 1.56 µM (≈ 3.52 µg/mL), respectively.
As to `CC[C@H](C)[C@@H]1NC(=O)CNC(=O)[C@H](CCCN=C(N)N)NC(=O)[C@H](CO)NC(=O)[C@@H]2CSSC[C@H](NC1=O)C(=O)N[C@@H](Cc1ccc(O)cc1)C(=O)N[C@@H](CCCN=C(N)N)C(=O)N[C@@H](CCCN=C(N)N)C(=O)N[C@H](C(=O)N[C@@H](CCCN=C(N)N)C(=O)O)CSSC[C@H](NC(=O)[C@H](Cc1c[nH]c3ccccc13)NC(=O)[C@@H](N)CCCCN)C(=O)N[C@@H](Cc1ccccc1)C(=O)N[C@@H](CCCN=C(N)N)C(=O)N[C@@H](C(C)C)C(=O)N2` [KWCFRVCSRGICYRRCR], the MIC in [15] came out at 3.13 µM (≈ 6.85 µg/mL); in test [1], 3.13 µM (≈ 6.85 µg/mL); with Escherichia coli C600, 0.8 µM (≈ 1.75 µg/mL).
As for `CC[C@H](C)[C@H](NC(=O)[C@H](CCCN=C(N)N)NC(=O)[C@H](CC(N)=O)NC(=O)[C@H](Cc1ccccc1)NC(=O)[C@H](CC(C)C)NC(=O)CNC(=O)[C@H](CCSC)NC(=O)[C@@H](N)CC(C)C)C(=O)N[C@H](C(=O)N[C@@H](CCCN=C(N)N)C(=O)N[C@@H](CCCCN)C(=O)N[C@H](C(=O)N[C@H](C(=O)N[C@@H](CCCCN)C(=O)N[C@@H](CC(C)C)C(=O)N[C@@H](Cc1ccccc1)C(=O)N[C@@H](CC(N)=O)C(N)=O)C(C)C)C(C)C)[C@@H](C)CC` [LMGLFNRIIRKVVKLFN], the minimal inhibitory concentration (MIC) in [3] was determined as 8 µM (≈ 16.5 µg/mL); in [4] it was 8 µM (≈ 16.5 µg/mL); in [5], 8 µM (≈ 16.5 µg/mL); in [6] it was 16 µM (≈ 33 µg/mL); in test [7], 16 µM (≈ 33 µg/mL); in test [8], 4 µM (≈ 8.24 µg/mL).
Regarding `CC[C@H](C)[C@H](NC(=O)[C@H](CCCN=C(N)N)NC(=O)[C@H](CCCN=C(N)N)NC(=O)[C@H](CC(C)C)NC(=O)[C@@H](N)CC(N)=O)C(=O)N[C@H](C(=O)N[C@@H](CCCN=C(N)N)C(=O)N[C@@H](CCCCN)C(=O)N[C@H](C(=O)N[C@H](C(=O)N[C@@H](Cc1cnc[nH]1)C(=O)N[C@H](C(=O)N[C@H](C(=O)N[C@@H](CCCCN)C(=O)N[C@@H](CCCCN)C(=O)N[C@@H](Cc1ccc(O)cc1)C(=O)O)[C@@H](C)CC)[C@@H](C)CC)[C@@H](C)CC)[C@@H](C)CC)[C@@H](C)CC` [NLRRIIRKIIHIIKKY], the MIC with Aspergillus fumigatus was found to be 6.4 µM (≈ 13.3 µg/mL); in the test on Pasteurella multocida it was 1.01 µM (≈ 2.1 µg/mL); in [16], 2.41 µM (≈ 5 µg/mL); against Bibersteinia trehalosi it was 1.01 µM (≈ 2.1 µg/mL); in [17], 9.63 µM (≈ 20 µg/mL); in test [1], 1.2 µM (≈ 2.5 µg/mL). Further, the MIC in [18] worked out at 0.626 µM (≈ 1.3 µg/mL); in [19], 1.2 µM (≈ 2.5 µg/mL); in the test with Staphylococcus aureus, 4.81 µM (≈ 10 µg/mL); in test [20], 2.41 µM (≈ 5 µg/mL); with Klebsiella pneumoniae it was 0.626 µM (≈ 1.3 µg/mL).
In the case of `CC[C@H](C)[C@H](NC(=O)[C@H](CCCN=C(N)N)NC(=O)CNC(=O)[C@@H](NC(=O)[C@H](CCCCN)NC(=O)[C@H](CCCN=C(N)N)NC(=O)[C@@H](NC(=O)[C@H](Cc1ccc(O)cc1)NC(=O)[C@H](CCCN=C(N)N)NC(=O)[C@H](CCCN=C(N)N)NC(=O)[C@H](CC(C)C)NC(=O)[C@H](CCC(=O)O)NC(=O)[C@H](CCCCN)NC(=O)[C@H](C)NC(=O)[C@@H](NC(=O)[C@H](CCCN=C(N)N)NC(=O)[C@H](CC(N)=O)NC(=O)[C@@H](NC(=O)CNC(=O)[C@@H](N)Cc1c[nH]c2ccccc12)[C@@H](C)O)[C@@H](C)CC)[C@@H](C)CC)C(C)C)C(=O)N[C@@H](C)C(=O)N[C@@H](CCCN=C(N)N)C(=O)N[C@@H](CCCCN)C(=O)N[C@@H](C)C(=O)N[C@@H](Cc1c[nH]c2ccccc12)C(=O)O` [WGTNRIAKELRRYIRKVGRIARKAW], the MIC in test [21] turned out to be 16 µM (≈ 49.6 µg/mL); in [1] it was 8 µM (≈ 24.8 µg/mL); against Escherichia coli BL21, 1 µM (≈ 3.1 µg/mL); in test [2], 0.25 µM (≈ 0.775 µg/mL).

Source of the values: DBAASP.
